Test results as given in patent US7928140B2, “Benzothiazole PI3 kinase modulators for cancer treatment” (Amgen Inc., priority 2007, dated 2011).
pIC50: −log10 of the molar value. Like-named read-outs stand apart in the source and are kept apart here.

Columns and labels:
[1] = molecular target: T1, PI3K α (Homo sapiens, UniProt P42336); test: In vitro PI3 kinase enzyme assay (alpha), ATP loss, bioluminescence; type: biochemical; conditions: read-out: PI3Kα ATP loss IC50;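 note: purified p110α/p85 heterodimer acting on PtdIns(4,5)P2 at room temperature, remaining ATP read by luminescence, inhibition scaled between compound-free wells with and without enzyme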
T1 construct: Full length p110 subunits of PI3K α, β and δ, N-terminally labeled with polyHis tag; polyHis (N); made in house; host or cells: Sf9 insect cells (baculovirus)

[2] = molecular target: T2, PI3K β (Homo sapiens, UniProt P42338); test: In vitro PI3 kinase enzyme assay (beta), ATP loss, bioluminescence; type: biochemical; conditions: read-out: PI3Kβ ATP loss IC50;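 note: purified p110β/p85 heterodimer with PtdIns(4,5)P2 as acceptor, incubated at room temperature, leftover ATP read by luminescence, inhibition scaled to compound-free wells with and without enzyme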
T2 construct: Full length p110 subunits of PI3K α, β and δ, N-terminally labeled with polyHis tag; polyHis (N); made in house; host or cells: Sf9 insect cells (baculovirus)

[3] = system: phosphorylation of Serine 473 in Akt, HCT 116 human colon carcinoma cells; test: Cell-based phospho-AKT Ser473 assay (MSD sandwich immunoassay, IGF-1 stimulated); conditions: Homo sapiens
Method in brief: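 HCT116 cells, 16,000/well and plated overnight, were pre-treated with serially diluted compound for 2 h at 37 °C, then stimulated with IGF-1 at 100 ng/ml for 15 min. Lysates were assayed for Akt pSer473 by MSD sandwich electrochemiluminescence, and IC50 was derived from dose-response data.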

[4] = HCT-116, HCT 116 cells, read-out: HCT 116 pAKT IC50

T1 sequence (P42336 whole entry, species assumed): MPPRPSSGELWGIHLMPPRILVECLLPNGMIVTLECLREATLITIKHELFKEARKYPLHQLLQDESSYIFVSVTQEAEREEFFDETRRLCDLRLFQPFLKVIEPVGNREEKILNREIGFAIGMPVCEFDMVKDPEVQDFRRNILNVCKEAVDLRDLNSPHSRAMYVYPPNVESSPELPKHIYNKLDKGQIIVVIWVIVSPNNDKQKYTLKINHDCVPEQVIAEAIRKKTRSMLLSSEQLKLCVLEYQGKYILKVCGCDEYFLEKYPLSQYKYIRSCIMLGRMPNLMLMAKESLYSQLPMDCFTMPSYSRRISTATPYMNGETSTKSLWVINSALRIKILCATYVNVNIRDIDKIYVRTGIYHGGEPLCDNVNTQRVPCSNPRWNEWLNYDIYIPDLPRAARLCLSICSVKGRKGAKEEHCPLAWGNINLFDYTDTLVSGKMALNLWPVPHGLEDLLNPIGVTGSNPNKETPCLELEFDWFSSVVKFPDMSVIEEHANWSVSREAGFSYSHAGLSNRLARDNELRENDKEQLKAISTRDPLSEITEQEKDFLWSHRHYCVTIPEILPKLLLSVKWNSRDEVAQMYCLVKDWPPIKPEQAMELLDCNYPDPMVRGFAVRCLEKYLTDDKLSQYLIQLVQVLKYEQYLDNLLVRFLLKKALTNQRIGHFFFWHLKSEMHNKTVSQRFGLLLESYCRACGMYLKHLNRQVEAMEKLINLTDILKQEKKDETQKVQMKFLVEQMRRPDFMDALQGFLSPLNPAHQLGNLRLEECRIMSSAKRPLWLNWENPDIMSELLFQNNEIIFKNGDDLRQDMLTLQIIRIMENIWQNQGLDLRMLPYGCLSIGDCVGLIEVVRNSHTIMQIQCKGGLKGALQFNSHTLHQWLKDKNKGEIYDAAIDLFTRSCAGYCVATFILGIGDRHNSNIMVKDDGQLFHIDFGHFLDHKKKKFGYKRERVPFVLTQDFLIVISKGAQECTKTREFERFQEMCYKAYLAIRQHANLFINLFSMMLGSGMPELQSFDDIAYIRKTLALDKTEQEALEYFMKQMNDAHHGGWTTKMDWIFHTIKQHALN
T1 sequence (P27986 whole entry partner, species assumed): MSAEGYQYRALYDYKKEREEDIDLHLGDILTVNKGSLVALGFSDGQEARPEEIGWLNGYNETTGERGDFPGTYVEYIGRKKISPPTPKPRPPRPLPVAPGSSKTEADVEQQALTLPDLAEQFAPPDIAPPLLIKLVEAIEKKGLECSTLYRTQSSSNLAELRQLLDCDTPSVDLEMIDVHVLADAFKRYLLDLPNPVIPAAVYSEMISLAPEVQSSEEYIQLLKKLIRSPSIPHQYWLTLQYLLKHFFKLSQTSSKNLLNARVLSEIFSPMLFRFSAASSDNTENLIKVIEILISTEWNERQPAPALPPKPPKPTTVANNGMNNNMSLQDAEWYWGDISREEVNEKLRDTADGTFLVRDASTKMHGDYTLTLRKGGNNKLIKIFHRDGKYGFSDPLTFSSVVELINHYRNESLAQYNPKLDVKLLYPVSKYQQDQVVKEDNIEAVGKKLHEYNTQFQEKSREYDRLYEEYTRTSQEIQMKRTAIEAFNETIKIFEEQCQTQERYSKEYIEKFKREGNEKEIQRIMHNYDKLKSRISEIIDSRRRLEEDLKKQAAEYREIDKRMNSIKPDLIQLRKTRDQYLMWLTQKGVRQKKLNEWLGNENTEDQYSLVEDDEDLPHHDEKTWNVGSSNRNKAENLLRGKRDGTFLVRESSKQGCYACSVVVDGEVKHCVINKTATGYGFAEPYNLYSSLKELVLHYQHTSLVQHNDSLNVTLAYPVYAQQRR
T2 sequence (P42338 whole entry): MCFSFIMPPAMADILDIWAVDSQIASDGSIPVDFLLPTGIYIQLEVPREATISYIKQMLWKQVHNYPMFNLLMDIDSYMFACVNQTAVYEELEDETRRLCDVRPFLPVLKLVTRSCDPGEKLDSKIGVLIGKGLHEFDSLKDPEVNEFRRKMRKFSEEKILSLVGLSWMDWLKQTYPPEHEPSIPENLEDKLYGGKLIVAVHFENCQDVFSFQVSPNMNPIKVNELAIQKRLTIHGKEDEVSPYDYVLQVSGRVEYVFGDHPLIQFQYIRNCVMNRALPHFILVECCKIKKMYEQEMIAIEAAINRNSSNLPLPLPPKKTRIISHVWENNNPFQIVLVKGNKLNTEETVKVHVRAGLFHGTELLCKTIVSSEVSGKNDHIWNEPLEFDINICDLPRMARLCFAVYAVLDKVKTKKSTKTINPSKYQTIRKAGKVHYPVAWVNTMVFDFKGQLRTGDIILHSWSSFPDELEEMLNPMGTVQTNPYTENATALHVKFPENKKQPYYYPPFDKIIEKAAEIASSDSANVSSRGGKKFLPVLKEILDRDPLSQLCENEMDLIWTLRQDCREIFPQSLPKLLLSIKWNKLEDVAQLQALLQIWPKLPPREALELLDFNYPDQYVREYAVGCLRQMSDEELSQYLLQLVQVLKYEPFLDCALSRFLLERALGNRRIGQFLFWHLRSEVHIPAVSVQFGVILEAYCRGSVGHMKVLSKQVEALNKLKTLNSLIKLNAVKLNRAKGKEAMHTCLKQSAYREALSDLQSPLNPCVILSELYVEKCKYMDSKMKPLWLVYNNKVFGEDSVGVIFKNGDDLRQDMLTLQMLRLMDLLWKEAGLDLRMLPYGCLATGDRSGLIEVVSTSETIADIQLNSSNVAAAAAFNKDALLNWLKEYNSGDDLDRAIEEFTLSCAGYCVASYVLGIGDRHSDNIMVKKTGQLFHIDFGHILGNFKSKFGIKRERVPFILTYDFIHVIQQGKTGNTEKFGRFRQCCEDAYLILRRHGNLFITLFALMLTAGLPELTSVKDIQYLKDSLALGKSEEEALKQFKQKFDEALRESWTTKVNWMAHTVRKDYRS
T2 sequence (P27986 whole entry partner): as the sequence (P27986 whole entry partner, species assumed) above

Compound	pIC50 [1]	pIC50 [2]	pIC50 [3, 4]	pIC50 ([3]; HCT-116, read-out: HCT 116 pAKT IC50)
CC(=O)Nc1nc2ccc(-c3cnc(Cl)c(O[C@H]4CCOC4)c3)cc2s1 [Example 236, N-(6-(6-chloro-5-((S)-tetrahydrofuran-3-yloxy)pyridin-3-yl)benzo[d]thiazol-2-yl)acetamide]	6.82	5.86	6.08	–
COc1ccc(S(=O)(=O)c2cncc(-c3ccc4nc(NC(C)=O)sc4c3)n2)cc1 [Example 120, N-(6-(6-((4-methoxyphenyl)sulfonyl)-2-pyrazinyl)-1,3-benzothiazol-2-yl)acetamide]	7.79	5.97	6.48	–
CC(=O)Nc1nc2ccc(-c3cnc(Cl)c(NS(=O)(=O)c4ccsc4)c3)cc2s1 [Example 187, N-(6-(6-chloro-5-(thiophene-4-sulfonamido)pyridin-3-yl)benzo[d]thiazol-2-yl)acetamide]	7.68	7.38	7.43	–
CCc1ccc(S(=O)(=O)Nc2nccc(-c3ccc4nc(NC(C)=O)sc4c3)n2)cc1 [Example 84, N-(6-(2-(((4-ethylphenyl)sulfonyl)amino)-4-pyrimidinyl)-1,3-benzothiazol-2-yl)acetamide]	7.66	7.10	6.76	–
COc1ccc(Sc2nccc(-c3ccc4nc(NC(C)=O)sc4c3)n2)c(C)c1 [Example 27, N-(6-(2-((4-methoxy-2-methylphenyl)sulfanyl)-4-pyrimidinyl)-1,3-benzothiazol-2-yl)acetamide]	7.40	6.70	6.23	–
CC(=O)Nc1nc2c(F)cc(-c3cncc(NS(=O)(=O)c4ccc(C(F)(F)F)cc4)c3)cc2s1 [Example 117, N-(4-fluoro-6-(5-(4-(trifluoromethyl)phenylsulfonamido)pyridin-3-yl)benzo[d]thiazol-2-yl)acetamide]	8.11	7.25	–	6.52
COc1ncc(-c2ccc3nc(NC(C)=O)sc3c2)cc1NC(C)C [Example 145, N-(6-(6-methoxy-5-((1-methylethyl)amino)-3-pyridinyl)-1,3-benzothiazol-2-yl)acetamide]	6.94	6.37	6.07	–
CC(=O)Nc1nc2ccc(-c3cncc(F)c3)cc2s1 [Example 289, N-(6-(5-Fluoropyridin-3-yl)benzo[d]thiazol-2-yl)acetamide]	7.02	5.49	6.35	–
CC(=O)Nc1nc2ccc(-c3cnc(Cl)c(NC(C)C)c3)cc2s1 [Example 132, N-(6-(6-chloro-5-((1-methylethyl)amino)-3-pyridinyl)-1,3-benzothiazol-2-yl)acetamide]	7.38	6.42	6.50	–
CC(=O)Nc1nc2ccc(-c3cccc(NS(=O)(=O)c4ccccc4F)n3)cc2s1 [Example 73, N-(6-(6-(2-Fluorophenylsulfonamido)pyridin-2-yl)benzo[d]thiazol-2-yl)acetamide]	7.22	6.83	6.50	–
CC(=O)Nc1nc2ccc(-c3ccnc(Sc4cccc(C)c4)n3)cc2s1 [Example 35, N-(6-(2-((3-methylphenyl)sulfanyl)-4-pyrimidinyl)-1,3-benzothiazol-2-yl)acetamide]	7.24	5.97	5.45	–
CC(=O)Nc1nc2ccc(-c3cnc(Cl)c(NS(=O)(=O)c4ccc(C(C)=O)cc4)c3)cc2s1 [Example 119, N-(6-(5-(((4-acetylphenyl)sulfonyl)amino)-6-chloro-3-pyridinyl)-1,3-benzothiazol-2-yl)acetamide]	7.91	7.87	7.46	–
CC(=O)Nc1nc2ccc(-c3ccnc(N(C)S(=O)(=O)c4ccc(C(C)(C)C)cc4)n3)cc2s1 [Example 205, N-(6-(2-(4-tert-butyl-N-methylphenylsulfonamido)pyrimidin-4-yl)benzo[d]thiazol-2-yl)acetamide]	7.53	7.06	7.24	–
CN(C)c1cc(-c2ccc3nc(N)sc3c2)cnc1Cl [Example 274, 6-(6-Chloro-5-(dimethylamino)pyridin-3-yl)benzo[d]thiazol-2-amine]	6.72	6.21	6.01	–
COc1ccc(S(=O)(=O)Nc2cc(-c3ccc4nc(NC(C)=O)sc4c3)cnc2C#N)cc1 [Example 267, N-(6-(6-cyano-5-(4-methoxyphenylsulfonamido)pyridin-3-yl)benzo[d]thiazol-2-yl)acetamide]	7.84	7.68	5.84	–
CC(C)Nc1cc(-c2ccc3nc(N)sc3c2)cnc1Cl [Example 155, 6-(6-chloro-5-((1-methylethyl)amino)-3-pyridinyl)-1,3-benzothiazol-2-amine]	6.29	5.94	5.70	–
CC(=O)Nc1nc2ccc(-c3ccnc(OCc4cccc(C)c4)n3)cc2s1 [Example 107, N-(6-(2-((3-methylbenzyl)oxy)-4-pyrimidinyl)-1,3-benzothiazol-2-yl)acetamide]	6.74	6.08	5.92	–
CC(=O)Nc1nc2ccc(-c3ccnc(Sc4ccc(C)cc4)n3)cc2s1 [Example 36, N-(6-(2-((4-methylphenyl)sulfanyl)-4-pyrimidinyl)-1,3-benzothiazol-2-yl)acetamide]	7.23	6.26	5.63	–
COc1cccc(S(=O)(=O)c2cccc(-c3ccc4nc(NC(C)=O)sc4c3)n2)c1 [Example 69, N-(6-(6-((3-methoxyphenyl)sulfonyl)-2-pyridinyl)-1,3-benzothiazol-2-yl)acetamide]	7.33	6.55	6.53	–
COc1ccc(S(=O)(=O)N(C)c2nccc(-c3cc(F)c4nc(NC(C)=O)sc4c3)n2)cc1 [Example 143, N-(4-fluoro-6-(2-(((4-methoxyphenyl)sulfonyl)(methyl)amino)-4-pyrimidinyl)-1,3-benzothiazol-2-yl)acetamide]	6.95	6.96	6.48	–
COc1nccc(-c2ccc3nc(NC(C)=O)sc3c2)n1 [Example 51, N-(6-(2-methoxy-4-pyrimidinyl)-1,3-benzothiazol-2-yl)acetamide]	6.30	< 4.40	6.02	–
CC(=O)Nc1nc2ccc(-c3ccnc(N(C)S(=O)(=O)c4ccc(C(F)(F)F)cc4)n3)cc2s1 [Example 213, N-(6-(2-(N-methyl-4-(trifluoromethyl)phenylsulfonamido)pyrimidin-4-yl)benzo[d]thiazol-2-yl)acetamide]	7.04	6.92	7.03	–

Second part, led by results:

pIC50 [1]	pIC50 [2]	pIC50 [3, 4]	Compound	pIC50 ([3]; HCT-116, read-out: HCT 116 pAKT IC50)
8.39	7.88	7.59	CC(=O)Nc1nc2ccc(-c3cnc(C)c(NS(=O)(=O)c4ccc(F)cc4)c3)cc2s1 [Example 111, N-(6-(5-(((4-fluorophenyl)sulfonyl)amino)-6-methyl-3-pyridinyl)-1,3-benzothiazol-2-yl)acetamide]	–
8.60	7.90	6.69	Nc1nc2ccc(-c3cnc(Cl)c(NS(=O)(=O)c4ccccc4C(F)(F)F)c3)cc2s1 [Example 314, N-(5-(2-amino-1,3-benzothiazol-6-yl)-2-chloro-3-pyridinyl)-2-(trifluoromethyl)benzenesulfonamide]	–
8.15	7.82	7.51	CC(=O)Nc1nc2ccc(-c3cnc(C)c(NS(=O)(=O)c4cccc(OC(F)F)c4)c3)cc2s1 [Example 115, N-(6-(5-(((3-(difluoromethoxy)phenyl)sulfonyl)amino)-6-methyl-3-pyridinyl)-1,3-benzothiazol-2-yl)acetamide]	–
7.97	7.70	7.81	CCCCS(=O)(=O)Nc1cc(-c2ccc3nc(NC(C)=O)sc3c2)cnc1Cl [Example 178, N-(6-(5-(butylsulfonamido)-6-chloropyridin-3-yl)benzo[d]thiazol-2-yl)acetamide]	–
8.25	8.01	7.45	CC(=O)Nc1nc2ccc(-c3cncc(NS(=O)(=O)c4ccc(Cl)c(Cl)c4)c3)cc2s1 [Example 200, N-(6-(5-(3,4-dichlorophenylsulfonamido)pyridin-3-yl)benzo[d]thiazol-2-yl)acetamide]	–
8.59	7.97	6.30	Nc1nc2ccc(-c3cnc(Cl)c(NS(=O)(=O)c4ccc(C(F)(F)F)cc4Cl)c3)cc2s1 [Example 308, N-(5-(2-amino-1,3-benzothiazol-6-yl)-2-chloro-3-pyridinyl)-2-chloro-4-(trifluoromethyl)benzenesulfonamide]	–
8.01	7.59	7.56	CC(=O)Nc1nc2ccc(-c3cncc(NS(=O)(=O)c4ccc(C)cc4)c3)cc2s1 [Example 194, N-(6-(5-(4-methylphenylsulfonamido)pyridin-3-yl)benzo[d]thiazol-2-yl)acetamide]	–
7.95	7.37	6.48	CNc1nc2ccc(-c3cnc(Cl)c(NS(=O)(=O)c4c(C)cccc4Cl)c3)cc2s1 [Example 318, 2-chloro-N-(2-chloro-5-(2-(methylamino)-1,3-benzothiazol-6-yl)-3-pyridinyl)-6-methylbenzenesulfonamide]	–
8.19	7.95	6.93	CC(=O)Nc1nc2ccc(-c3cncc(NS(=O)(=O)c4ccc(C(C)(C)C)cc4)c3)cc2s1 [Example 201, N-(6-(5-(4-tert-butylphenylsulfonamido)pyridin-3-yl)benzo[d]thiazol-2-yl)acetamide]	–
